Data on one substance can be found in article PMC9602792, “Preclinical evaluation of the epithelial sodium channel inhibitor AZD5634 and implications on human translation” (American Journal of Physiology - Lung Cellular and …, 2022).

For one data set, the target named is T1, ENaC (Homo sapiens, UniProt P37088+P51168+P51170).
T1 construct: host or cells: primary normal human bronchial epithelial cells, ALI culture
T1 sequence (P37088 1-669): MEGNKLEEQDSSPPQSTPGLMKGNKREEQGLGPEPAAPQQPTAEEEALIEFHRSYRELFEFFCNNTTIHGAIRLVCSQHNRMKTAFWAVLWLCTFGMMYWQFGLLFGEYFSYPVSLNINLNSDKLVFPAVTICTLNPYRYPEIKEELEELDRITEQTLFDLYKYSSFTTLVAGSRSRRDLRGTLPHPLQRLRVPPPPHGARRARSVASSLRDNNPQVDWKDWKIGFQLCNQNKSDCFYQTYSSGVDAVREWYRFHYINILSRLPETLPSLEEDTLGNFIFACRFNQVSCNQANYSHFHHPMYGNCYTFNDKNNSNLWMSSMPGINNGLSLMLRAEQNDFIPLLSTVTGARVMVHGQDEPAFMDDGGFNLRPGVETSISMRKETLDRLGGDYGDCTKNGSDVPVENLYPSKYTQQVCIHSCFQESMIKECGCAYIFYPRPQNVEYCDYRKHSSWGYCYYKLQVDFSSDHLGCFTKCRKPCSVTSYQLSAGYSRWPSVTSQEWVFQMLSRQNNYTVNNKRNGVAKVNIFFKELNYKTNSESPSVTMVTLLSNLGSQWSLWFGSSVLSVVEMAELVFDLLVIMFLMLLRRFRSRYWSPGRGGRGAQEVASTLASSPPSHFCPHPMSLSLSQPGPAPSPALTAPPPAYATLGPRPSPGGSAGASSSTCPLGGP
T1 sequence (P51168 1-640): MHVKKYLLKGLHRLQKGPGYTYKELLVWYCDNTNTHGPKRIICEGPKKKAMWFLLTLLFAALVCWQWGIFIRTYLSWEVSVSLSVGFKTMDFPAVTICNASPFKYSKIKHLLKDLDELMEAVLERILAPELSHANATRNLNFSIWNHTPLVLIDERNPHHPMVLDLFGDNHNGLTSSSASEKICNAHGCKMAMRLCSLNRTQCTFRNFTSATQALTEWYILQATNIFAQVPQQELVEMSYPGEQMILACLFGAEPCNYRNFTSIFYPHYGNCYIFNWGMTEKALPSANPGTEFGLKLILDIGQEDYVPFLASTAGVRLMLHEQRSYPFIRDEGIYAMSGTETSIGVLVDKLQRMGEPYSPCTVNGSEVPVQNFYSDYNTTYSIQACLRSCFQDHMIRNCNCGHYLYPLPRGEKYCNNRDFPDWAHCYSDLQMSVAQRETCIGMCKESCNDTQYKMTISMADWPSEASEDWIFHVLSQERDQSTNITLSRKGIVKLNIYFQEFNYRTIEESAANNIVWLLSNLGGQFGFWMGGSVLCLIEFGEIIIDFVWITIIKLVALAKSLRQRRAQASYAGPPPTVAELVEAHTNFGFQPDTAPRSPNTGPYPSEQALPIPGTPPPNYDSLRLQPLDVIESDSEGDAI
T1 sequence (P51170 1-649): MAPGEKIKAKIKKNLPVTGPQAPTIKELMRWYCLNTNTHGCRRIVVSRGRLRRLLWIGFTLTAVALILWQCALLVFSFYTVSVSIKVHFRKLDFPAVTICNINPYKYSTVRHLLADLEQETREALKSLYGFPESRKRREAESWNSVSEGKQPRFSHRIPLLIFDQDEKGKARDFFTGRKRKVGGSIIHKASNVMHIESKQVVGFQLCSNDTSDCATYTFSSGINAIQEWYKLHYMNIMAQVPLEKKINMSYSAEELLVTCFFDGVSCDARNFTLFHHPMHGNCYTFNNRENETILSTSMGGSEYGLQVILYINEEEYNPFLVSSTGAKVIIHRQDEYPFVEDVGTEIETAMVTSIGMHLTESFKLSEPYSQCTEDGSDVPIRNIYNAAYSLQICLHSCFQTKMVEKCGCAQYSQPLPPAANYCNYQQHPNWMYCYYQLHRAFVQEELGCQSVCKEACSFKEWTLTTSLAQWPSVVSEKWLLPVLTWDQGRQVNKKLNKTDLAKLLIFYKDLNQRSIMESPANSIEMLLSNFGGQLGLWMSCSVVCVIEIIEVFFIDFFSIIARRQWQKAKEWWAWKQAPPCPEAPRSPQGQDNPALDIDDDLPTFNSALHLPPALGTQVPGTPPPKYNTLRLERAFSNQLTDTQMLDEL
Put plainly: Ussing chamber Isc in F508del-homozygous CF HBEC cultures. Format: cell-based. As to the method:
Using previously described techniques ([2], [37]), epithelial cells were harvested from excised lung tissue derived from CF donors homozygous for F508del CFTR, expanded, and grown until confluency was attained. […] To stimulate fresh mucus secretion and formation of an even ASL layer, the cells were washed 48–72 h before experimentation with PneumaCult ALI media (80 µL), added apically, and then aspirated following 30–45 min incubation at 37°C. The washing process was repeated with a 15-min incubation period and the mucus layer was allowed to reestablish, after which the cells were treated with 1 µL of AZD5634 (1 µM, apical), alone and in combination with lumacaftor and ivacaftor (luma/iva; 3 µM/10 µM, basolateral). PBS (1% DMSO, apical) served as a vehicle control. […] Only passage 1 and 2 monolayers were used for these studies.
CFTR-dependent ion transport electrophysiology was measured in HBEC cultures by Isc using modified P2300 Ussing chambers (Physiologic Instruments, San Diego, CA) as previously described ([37], [38]). […] All chambers were maintained at 37°C and agonist stimulation was initiated within 15 min of placement in the chambers.
Descriptive statistics were calculated and means compared using unpaired or paired t tests, or ANOVA, with post hoc analyses conducted for multiple comparisons where appropriate. For analyses of functional anatomy of en bloc trachea, a mixed linear model was used that corrected for within-animal correlation. All tests were two-sided and were computed using GraphPad Prism (GraphPad Software, Inc., La Jolla, CA). P-values <0.05 were considered significant. Statistics are reported as means ± SE, unless indicated otherwise.

Details of data set [1]: method as in unpublished information. The settings on record: ref unpublished information, cited from earlier work.

Take AZD5634: the EC50 at ENaC (F508del-homozygous HBE ALI cultures, read-out: half maximal effective concentration (EC50), cumulative drug effect on Isc) was 45.2 nM. Also, the “incremental Isc change” value at ENaC (at 100 nM) is on record as −6.4 ± 1.6. Besides, on ENaC (at the maximum concentration (10,000 nM)), the “cumulative ΔIsc” value is on record as −25.3 ± 5.9. At ENaC (benzamil 10 μM after maximal concentration of test drug), the “further reduction in Isc upon acute addition of benzamil” value is “no further appreciable reductions in Isc”. Besides, the hyperkalemia entry in data set [1] (after inhalation and/or nebulization) is recorded as “does not cause hyperkalemia”. The renal clearance result in data set [1] is listed as “minimal”.
